Reference: patent publication US4820722A, “Disubstituted tetrazoles and their use as leukotriene antagonists” (Eli Lilly and Company, priority 1987, dated 1989)

target: T1, LTD4 responses of guinea pig ileum and trachea (Cavia porcellus, UniProt Q2NNR5); experiment: LTD4 antagonism, cumulative LTD4 concentration-response curves in guinea pig ileum and trachea (KB by Furthgott method); format: cell-based, guinea pig (male Hartley); conditions: 30 minute incubation with antagonist, Table I title names ileal contractions
T1 sequence (Q2NNR5 1-340): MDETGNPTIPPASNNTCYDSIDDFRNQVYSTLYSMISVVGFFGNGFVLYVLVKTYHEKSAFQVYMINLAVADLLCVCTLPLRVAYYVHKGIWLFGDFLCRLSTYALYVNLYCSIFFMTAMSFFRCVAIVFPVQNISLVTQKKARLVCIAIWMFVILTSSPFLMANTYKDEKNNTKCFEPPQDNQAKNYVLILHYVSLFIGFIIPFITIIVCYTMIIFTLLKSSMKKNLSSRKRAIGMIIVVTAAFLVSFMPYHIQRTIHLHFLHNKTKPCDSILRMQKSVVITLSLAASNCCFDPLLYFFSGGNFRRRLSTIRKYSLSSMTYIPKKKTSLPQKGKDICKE

pKB (negative log of the dissociation KB) | Structure (SMILES)
6.50 | CCCc1c(COc2ccc(Cc3nnn(CCC[S+](C)[O-])n3)cc2)ccc(C(C)=O)c1O (stereo not shown) [Example 39, 5-[(4-((4-Acetyl-3-hydroxy-2-propylphenyl)methoxy)phenyl)methyl]-2-(3-methylsulfinylpropyl)-2H-tetrazole]
6.37 | CCCc1c(COc2ccc(Cc3nnn(CCCS(C)(=O)=O)n3)cc2)ccc(C(C)=O)c1O [Example 40, 5-[(4-((4-Acetyl-3-hydroxy-2-propylphenyl)methoxy)phenyl)methyl]-2-(3-methylsulfonylpropyl)-2H-tetrazole]
6.01 | CCCc1c(COc2ccc(Cc3nnnn3CCCN(C)C)cc2)ccc(C(C)=O)c1O [Example 16, 5-[(4-((4-Acetyl-3-hydroxy-2-propylphenyl)methoxy)phenyl)methyl]-1-(3-(dimethylamino)propyl)-1H-tetrazole]
7.90 | CCCc1c(COc2ccc(Cc3nnn(Cc4ccc(-c5nnn[nH]5)cc4)n3)cc2)ccc(C(C)=O)c1O [Example 38, 1-[2-Hydroxy-3-propyl-4-[[4-[[2-[[4-(1H-tetrazol-5-yl)phenyl]methyl]-2H-tetrazol-5-yl]methyl]phenoxy]methyl]phenyl]ethanone]
7.63 | CCCc1c(COc2ccc(-c3nnn(CCCc4nnn[nH]4)n3)cc2)ccc(C(C)=O)c1O [Example 36]
6.37 | CCCc1c(COc2ccc(-c3nnn(CCCN(C)C)n3)cc2)ccc(C(C)=O)c1O [Example 37, 1-[4-[[4-[2-[3-(Dimethylamino)propyl]-2H-tetrazol-5-yl]phenoxy]methyl]-2-hydroxy-3-propylphenyl]ethanone]
7.70 | CCCc1c(COc2ccc(Cc3nnn(CCC(C)(C)Cc4nnn[nH]4)n3)cc2)ccc(C(C)=O)c1O [Example 28]
7.38 | CCCc1c(COc2ccc(Cc3nnn(CCCCCCc4nnn[nH]4)n3)cc2)ccc(C(C)=O)c1O [Example 27, 1-[2-Hydroxy-3-propyl-4-[[4-[[2-[6-(1H-tetrazol-5-yl)hexyl]-2H-tetrazol-5-yl]methyl]phenoxy]methyl]phenyl]ethanone]
6.65 | CCCc1c(COc2ccc(Cc3nnn(CCCN(C)C)n3)cc2)ccc(C(C)=O)c1O [Example 15, 5-[(4-((4-Acetyl-3-hydroxy-2-propylphenyl)methoxy)phenyl)methyl]-2-(3-(dimethylamino)propyl)-2H-tetrazole]
7.64 | CCCc1c(COc2ccc(Cc3nnn(CCCCCc4nnn[nH]4)n3)cc2)ccc(C(C)=O)c1O.[Na]
6.45 | CCCc1c(COc2ccc(Cc3nnn(CCCSC)n3)cc2)ccc(C(C)=O)c1O [Example 17, 5-[(4-((4-Acetyl-3-hydroxy-2-propylphenyl)methoxy)phenyl)methyl]-2-(3-methylthiopropyl)-2H-tetrazole]

tested on: LTD4 evoked contractions of guinea pig ileum; experiment: LTD4 antagonism on isolated guinea pig ileum (inhibition of LTD4 evoked ileal contractions, single submaximal LTD4 responses); format: cell-based, guinea pig (male Hartley); conditions: Cavia porcellus, 37° C., five minute exposure to drug, 2-4 concentrations, linear regression interpolation, read-out: -log IC50 (antagonist concentration that produced 50% inhibition of the LTD4 responses) (converted)
Procedure: Male, Hartley guinea pigs weighing 200-450 grams were killed by decapitation. A section of terminal ileum was removed, the lumen cleaned, and the tissue divided into 2.5 cm. segments. The ilea were mounted in 10 ml. tissue baths containing Krebs-bicarbonate solution of the following composition in mmoles/liter: KCl, 4.6; CaCl2 ·2H2 O, 1.2; KH2 PO4, 1.2; MgSO4 ·7H20, 1.2; NaCl, 118.2; NaHCO3, 24.8; and dextrose, 10.0. The bath fluid was maintained at 37° C. and aerated with 95 percent oxygen and 5 percent CO2. In addition, the buffer contained […] atropine to reduce ileal spontaneous activity. Isometric measurements were made with a Grass FTO3C force-displacement transducer and recorded on a Grass polygraph as change in grams of force. A passive force of 0.5 g. was applied to the tissues. After an appropriate equilibration period, single submaximal control responses to pure LTD4 were obtained. Following a five minute exposure of the ileum to an experimental drug, the control concentration of LTD4 was added to the tissue bath. The response of the ileum to LTD4 in the presence of the drug was compared to the response in the absence of the drug. Various degrees of LTD4 antagonism were obtained using 2-4 different concentrations of an experimental compound on a single ileum.

IC50 [nM] | Structure (SMILES)
17.4 | CCCc1c(COc2ccc(Cc3nnnn3Cc3nnn[nH]3)cc2)ccc(C(C)=O)c1O [Example 21]
8.13 | CCCc1c(COc2ccc(Cc3nnn(CCCCc4nnn[nH]4)n3)cc2)ccc(C(C)=O)c1O [Example 26, 1-[2-Hydroxy-3-propyl-4-[[4-[[2-[4-(1H-tetrazol-5-yl)butyl]tetrazol-5-yl]methyl]phenoxy]methyl]phenyl]ethanone]
19.1 | CCCc1c(COc2ccc(Cc3nnnn3CCCCc3nnn[nH]3)cc2)ccc(C(C)=O)c1O [Example 25]
20 | CCCc1c(COc2ccc(Cc3nnn(CCCC(=O)O)n3)cc2)ccc(C(C)=O)c1O [Example 33, 5-[(4-[(4-Acetyl-3-hydroxy-2-propylphenyl)methoxy]phenyl)methyl]-2H-tetrazole-2-butanoic acid]
11.7 | CCCc1c(COc2ccc(Cc3nnn(CCCCC(=O)O)n3)cc2)ccc(C(C)=O)c1O [Example 35, 5-[(4-[(4-Acetyl-3-hydroxy-2-propylphenyl)methoxy]phenyl)methyl]-2H-tetrazole-2-valeric acid]
11.7 | CCCc1c(COc2ccc(Cc3nnn(Cc4nnn[nH]4)n3)cc2)ccc(C(C)=O)c1O [Example 22, 1-[2-hydroxy-3-(propyl)-4-[[4-[[2-(1H-tetra-zol-5-ylmethyl)-2H-tetrazol-5-yl]methyl]phenoxyl]methyl]phenyl]ethanone]
14.1 | CCCc1c(COc2ccc(Cc3nnnn3CCCc3nnn[nH]3)cc2)ccc(C(C)=O)c1O [Example 23]
28.2 | CCCc1c(COc2ccc(Cc3nnn(CC(=O)O)n3)cc2)ccc(C(C)=O)c1O [Example 31, 5-[[4-[(4-Acetyl-3-hydroxy-2-propylphenyl)methoxy]phenyl]methyl]-2H-tetrazole-2-acetic acid]
3.8 | CCCc1c(COc2ccc(Cc3nnn(CCCc4nnn[nH]4)n3)cc2)ccc(C(C)=O)c1O [Example 24, 1-2[-Hydroxy-3-propyl-4[[4-[[2-[3-(1H-tetra-zol-5-yl)propyl]-2H-tetrazol-5-yl]methyl]phenoxy]methyl]phenyl]ethanone]
57.5 | CCCc1c(COc2ccc(Cc3nnnn3CCCC(=O)O)cc2)ccc(C(C)=O)c1O [Example 32, 5-[[4-[[4-Acetyl-3-hydroxy-2-propylphenyl)methoxy]phenyl]methyl]-1H-tetrazole-1-butyric acid]
55 | CCCc1c(COc2ccc(Cc3nnnn3CCCCC(=O)O)cc2)ccc(C(C)=O)c1O [Example 34, 5-[(4-[(4-Acetyl-3-hydroxy-2-propylphenyl)methoxy]phenyl)methyl]-1H-tetrazol-1-valeric acid]
